Test results published in patent US20250179499A1, “USE OF CDK16 AS TARGET IN PREPARATION OF MEDICINE FOR TREATING TRIPLE-NEGATIVE BREAST CANCER” (SHENZHEN TYERCAN BIO-PHARM CO., LTD., priority 2022, published 2025).

Columns and labels:
TNBC-type PDX tumors = test: Growth of TNBC-type PDX tumors; assay type: in vivo, NSG mice; details: Rebastinib 80 mg/kg by gavage, 11 days, vs solvent control; FIG. 5H-5K
Protocol: Primary tumor cells from the patient infected with the lentivirus were in-situ injected into the fourth pair of mammary gland fat pads of the NSG mice according to the method described in 3, and the occurrence of tumors was observed and recorded.
(§1) The tumor cell line was transplanted in situ as that in Example 1. When the tumor size reached […], the mice were divided into a control group (solvent) and a group administrated with Rebastinib (80 mg/kg), with 3 mice in each group. The mice were administrated by gavage continuously (administrated with MDA-MB-231 xenografts for 13 days and administrated with PDX for 11 days), during which the mice were weighed every day, and the tumor size was measured every three days. After completion of the administration, the mice were sacrificed and the tumors were weighed.

TNBC-type PDOs = test: Growth of TNBC PDO (patient-derived organoids in Matrigel); assay type: cell-based, human; details: 1 μM and 5 μM
Protocol: The primary tumor cells from the patient infected with the lentivirus were resuspended with pre-cooled Matrigel to a concentration of 2× 10^4 cells/50 μL Matrigel. The Matrigel was added dropwise into a 24-well culture plate and allowed to stand at 37° C. for 15-20 min. After confluence, the cells were added with a breast cancer tumor organoid culture medium for culture, the culture medium was replaced by a fresh culture medium every three days, and the number and size of organoid growth were counted.
Similar to the PDO model establishment operation in Example 1, the primary tumor cells derived from TNBC patients were resuspended with pre-cooled Matrigel to a concentration of 2×10^4 cells/50 μL Matrigel. The Matrigel was added dropwise into a 24-well culture plate and allowed to stand at 37° C. for 15-20 min. After confluence, the cells were added with a breast cancer tumor organoid culture medium for culture, and the culture medium was replaced by a fresh culture medium every three days. The PDOs were divided into 6 groups, including an untreated group, a solvent control group, groups administrated with low and high doses of Abemaciclib (with doses of 1 μM and 5 μM, respectively), and groups administrated with low and high doses of Rebastinib (with doses of 1 μM and 5 μM, respectively). After three days of culture, the PDOs were started to be treated by addition of a drug according to groups. The size and number of organoids were counted after one week.

MDA-MB-231 xenografts = test: Growth of MDA-MB-231 xenografts transplanted in situ into mammary gland fat pads; assay type: in vivo, mice; details: Rebastinib 80 mg/kg by gavage, 13 days, vs solvent control; FIG. 5A-5D
Excerpt: Lentivirus-infected breast tumor cells were resuspended with 50% of FBS (diluted with PBS), added with Matrigel at a volume ratio of 1:1, then added with 0.04% of trypan blue, mixed well, and placed on ice until inoculation into mice. After the mouse was anesthetized, it was placed on an experimental table with its abdomen facing upwards, and a “Y”-shaped opening was cut in its abdominal epidermis along a midline and the direction of the lower limbs on both sides with scissors (without cutting the peritoneum). The opening was peeled off to both sides with cotton swabs and tweezers to expose the fourth pair of mammary gland fat pads, and the epidermis was fixed with needles. 10-20 μL of a cell suspension was drawn up with a syringe and injected into the mammary gland fat pads. Finally, the skin on both sides was closed and sutured with surgical staples. The surgical staples could be removed after the wound healed. Since the surgery, the occurrence of tumors in the mouse was observed and recorded every day. After about one week, the length and width of the tumor were measured with a vernier caliper and recorded, and the change in the weight of the mouse was monitored. The tumor volume was calculated by the following formula: Volume (mm^3)=length×width×width×0.52.
as §1

CNC(=O)c1cc(Oc2ccc(NC(=O)Nc3cc(C(C)(C)C)nn3-c3ccc4ncccc4c3)c(F)c2)ccn1 [Rebastinib]
sizes of TNBC-type PDX tumors (TNBC-type PDX tumors): significantly inhibits
volumes of TNBC-type PDX tumors (TNBC-type PDX tumors): significantly inhibits
weights of TNBC-type PDX tumors (TNBC-type PDX tumors): significantly inhibits
sizes of TNBC-type PDOs (TNBC-type PDOs; counted after one week, FIG. 5E): significantly inhibits
number of TNBC-type PDOs (TNBC-type PDOs; counted after one week, FIG. 5F): significantly reduces
apoptosis of TNBC-type PDOs (TNBC-type PDOs; FIG. 5G): promotes
proliferation of TNBC-type PDOs (TNBC-type PDOs; FIG. 5G): significantly inhibits
sizes of MDA-MB-231 tumors (MDA-MB-231 xenografts): significantly inhibits
volumes of MDA-MB-231 tumors (MDA-MB-231 xenografts): significantly inhibits
weights of MDA-MB-231 tumors (MDA-MB-231 xenografts): significantly inhibits
